These results are taken from PubChem BioAssay (NCI).

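Growth conditions: 96-well plates. Treatment: test compound, 48 hours, 5 concentrations. Analysis: linear interpolation between bracketing concentrations; unreached endpoints set to highest concentration. GI50 is the concentration that inhibits growth by half. TGI: total growth inhibition.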 Where only a bound is given, the exact number is not on record here.

Among the test systems are COLO 205 colon; HCC-2998 colon; HCT-15 colon; MOLT-4 leukemia; NCI-H23 lung; OVCAR-5 ovarian; PC-3 prostate; SK-MEL-5 melanoma; SNB-75 CNS; T-47D breast.
Holding throughout (experiment): NCI tumour cell line growth inhibition, 48 h

`Cc1ccc(NC(=O)c2ccnc(C(F)(F)F)c2)cc1-c1cc(OCCO)nc(N2CCOCC2)c1`: the GI50 is 0.445 µM in the test on COLO 205 colon; 0.464 µM with HCC-2998 colon; 2.24 µM in the test with HCT-15 colon; 3.5 µM in the test with MOLT-4 leukemia; 0.916 µM in the test with NCI-H23 lung; 1.09 µM with OVCAR-5 ovarian. Besides, the GI50 with PC-3 prostate is 3.24 µM; in the test with SK-MEL-5 melanoma, 1.5 µM; in the test on SNB-75 CNS, 1.46 µM; with T-47D breast, 3.31 µM. For the same compound, the TGI in the test on COLO 205 colon is 11.8 µM; in the test on HCC-2998 colon it was 10 µM; with HCT-15 colon, 19.4 µM; in the test on MOLT-4 leukemia it was above 100 µM; in the test with NCI-H23 lung it was 12.5 µM; in the test on OVCAR-5 ovarian, 28.3 µM. Further, the TGI in the test with PC-3 prostate is above 100 µM; with SK-MEL-5 melanoma it was 4.71 µM; in the test on SNB-75 CNS it was 7.29 µM; in the test on T-47D breast, above 100 µM.
With `CCOC(=O)C1CCC/C1=N\N=C(N)N` (centres undefined) (tested in a mixture with another compound), the TGI with COLO 205 colon, in the test with HCC-2998 colon, in the test with HCT-15 colon, in the test on MOLT-4 leukemia, in the test with NCI-H23 lung and in the test with OVCAR-5 ovarian was above 100 µM in each case. The TGI in the test with PC-3 prostate, with SK-MEL-5 melanoma, in the test on SNB-75 CNS and with T-47D breast was above 100 µM each time.
With `OCCNc1nc(NCCO)nc(Nc2ccc(C3=NN(c4cc(Cl)cc(Cl)c4)C(c4ccc(Cl)cc4)C3)cc2)n1` (centres undefined), the GI50 is 1.91 µM in the test on COLO 205 colon; 1.96 µM in the test on HCC-2998 colon; 1.48 µM in the test with HCT-15 colon; 1.52 µM in the test on MOLT-4 leukemia; 1.72 µM in the test on NCI-H23 lung; 1.96 µM in the test on OVCAR-5 ovarian. Moreover, the GI50 was 1.62 µM in the test with PC-3 prostate, 1.81 µM in the test with SK-MEL-5 melanoma, 1.51 µM in the test on SNB-75 CNS and 1.5 µM in the test with T-47D breast. Besides, the TGI in the test on COLO 205 colon is 3.84 µM; in the test on HCC-2998 colon it was 3.52 µM; in the test with HCT-15 colon it was 2.8 µM; with MOLT-4 leukemia, 4.02 µM; in the test with NCI-H23 lung, 3.4 µM; with OVCAR-5 ovarian, 4.43 µM. Moreover, the TGI in the test with PC-3 prostate was found to be 4.32 µM; with SK-MEL-5 melanoma it was 3.37 µM; in the test with SNB-75 CNS, 3.06 µM; in the test on T-47D breast, 3.88 µM.
Regarding `CCN(CC)CCC(=O)Nc1cccc2c1C(=O)c1c(c(O)c3ccccc3c1O)C2=O`, the GI50 in the test on COLO 205 colon was 20.7 µM; in the test with HCC-2998 colon, above 100 µM; with HCT-15 colon it was 0.934 µM; with MOLT-4 leukemia, 8.27 µM; in the test with NCI-H23 lung it was 21.9 µM; in the test on OVCAR-5 ovarian it was 14.6 µM. In addition, the GI50 in the test with PC-3 prostate is 4.6 µM; in the test on SK-MEL-5 melanoma it was 49.7 µM; with SNB-75 CNS, 2.11 µM; with T-47D breast it was above 100 µM. Also, the TGI was above 100 µM in the test on COLO 205 colon; above 100 µM in the test with HCC-2998 colon; above 100 µM in the test with HCT-15 colon; 72.5 µM in the test with MOLT-4 leukemia; above 100 µM in the test with NCI-H23 lung; 30 µM with OVCAR-5 ovarian. The TGI in the test on PC-3 prostate was 21.7 µM; in the test on SK-MEL-5 melanoma, above 100 µM; with SNB-75 CNS, 10.8 µM; with T-47D breast it was above 100 µM.
Turning to `C=C1C(=O)O[C@H]2[C@H]1CC/C(COC(=O)NCCc1ccc(OC)cc1)=C\CC[C@@]1(C)O[C@@H]21`, the GI50 in the test on COLO 205 colon is 1.94 µM; in the test with HCC-2998 colon, 2.48 µM; with HCT-15 colon, 1.74 µM; with MOLT-4 leukemia, 2.61 µM; with NCI-H23 lung, 4.34 µM; with OVCAR-5 ovarian it was 2.65 µM. Further, the GI50 with PC-3 prostate is 8.08 µM; in the test on SK-MEL-5 melanoma, 6.23 µM; with SNB-75 CNS, 4.09 µM; in the test on T-47D breast it was 2.47 µM. Moreover, the TGI stood at 4.18 µM in the test with COLO 205 colon; 5.63 µM in the test on HCC-2998 colon; 4.01 µM in the test with HCT-15 colon; 6.77 µM in the test with MOLT-4 leukemia; 18.6 µM with NCI-H23 lung; 8.27 µM with OVCAR-5 ovarian. Further, the TGI in the test on PC-3 prostate stood at 21.7 µM; in the test with SK-MEL-5 melanoma, 19.1 µM; with SNB-75 CNS it was 16.6 µM; in the test with T-47D breast, 6.52 µM.
With `CN(C)c1cccc2[nH]c(-c3[nH]ncc3Nc3ccnc(N)n3)nc12`, the GI50 in the test on COLO 205 colon is below 0.01 µM; with HCC-2998 colon it was 0.0276 µM; with HCT-15 colon, 0.0144 µM; in the test on MOLT-4 leukemia, 0.0258 µM; with NCI-H23 lung it was 0.0232 µM; in the test on OVCAR-5 ovarian, 0.023 µM. Moreover, the GI50 was 0.0147 µM in the test with PC-3 prostate, 0.0295 µM with SK-MEL-5 melanoma, below 0.0108 µM in the test with SNB-75 CNS and 0.0331 µM with T-47D breast. In addition, the TGI was 0.0837 µM in the test on COLO 205 colon; 0.488 µM in the test with HCC-2998 colon; 1.03 µM in the test on HCT-15 colon; 10.2 µM in the test on MOLT-4 leukemia; 0.217 µM with NCI-H23 lung; 1.9 µM in the test with OVCAR-5 ovarian. The TGI in the test with PC-3 prostate stood at 0.276 µM; with SK-MEL-5 melanoma, 0.15 µM; in the test with SNB-75 CNS, 0.0302 µM; in the test with T-47D breast, 2.01 µM.
Turning to `COc1ccc2c(c1)[nH]c(=O)c1c3cccnc3cn21`, the GI50 was 0.0359 µM with COLO 205 colon; 0.0744 µM in the test on HCC-2998 colon; 0.043 µM with HCT-15 colon; 0.0675 µM in the test with MOLT-4 leukemia; 0.131 µM with NCI-H23 lung; 0.205 µM with OVCAR-5 ovarian. Moreover, the GI50 is 0.0338 µM in the test on PC-3 prostate, 0.025 µM with SK-MEL-5 melanoma, 0.031 µM with SNB-75 CNS and 2.72 µM in the test with T-47D breast. The TGI was 0.146 µM in the test on COLO 205 colon; 17.7 µM with HCC-2998 colon; 29.3 µM in the test with HCT-15 colon; above 100 µM in the test with MOLT-4 leukemia; 35.3 µM in the test with NCI-H23 lung; above 100 µM in the test on OVCAR-5 ovarian. Further, the TGI in the test with SK-MEL-5 melanoma came to 0.0992 µM; in the test on SNB-75 CNS, 57.3 µM; in the test with T-47D breast, 31.6 µM.
`O=[N+]([O-])c1cccc(-c2nc3sccn3c2-c2ccnc(NCCCNS(=O)(=O)c3ccc(F)cc3)n2)c1`: the GI50 is 2.44 µM with COLO 205 colon; 7.29 µM in the test on HCC-2998 colon; 2.08 µM with HCT-15 colon; 1.23 µM in the test on MOLT-4 leukemia; 2.42 µM in the test on NCI-H23 lung; 5.63 µM in the test with OVCAR-5 ovarian. Also, the GI50 with PC-3 prostate was 1.14 µM; in the test with SK-MEL-5 melanoma, 1.06 µM; in the test with SNB-75 CNS it was 1.58 µM; with T-47D breast, 0.303 µM. For the same compound, the TGI in the test on COLO 205 colon was 8.24 µM; with HCC-2998 colon, above 100 µM; with HCT-15 colon it was 9.79 µM; in the test with MOLT-4 leukemia, 5.52 µM; with NCI-H23 lung, 9.16 µM; with OVCAR-5 ovarian it was above 100 µM. In addition, the TGI came out at 4.82 µM in the test on PC-3 prostate, 2.45 µM with SK-MEL-5 melanoma, 6.07 µM in the test on SNB-75 CNS and 2.82 µM with T-47D breast.
